Source: patent US10688197B2, “Non-alcoholic fatty liver regulator 14-3-3 protein” (Korea University Research and Business Foundation, priority 2015, dated 2020)

Experiments:
FAT/CD36 promoter = test: Chromatin immunoprecipitation (ChIP assay), binding of PPARγ2 to FAT/CD36 promoter in HepG2 cells; assay type: cell-based; settings: overexpression, FIG. 7C upper side
Method: In addition, for chromatin immunoprecipitation (ChIP), HepG2 cells were seeded in a 100 mm plate at a density of 4×10^6 cells per each well, and then transfected with Flag-PPARγ2 DNA (4 μg), mGST-14-3-3β DNA (4 μg) or mGST-14-3-3γ DNA (4 μg), and si-14-3-3β (20 μM, Santa Cruz) or si-14-3-3γ (20 μM, Santa Cruz) using an E-fection plus reagent (Lugen). A ratio of DNA to the E-fection plus reagent was 1:2, and this method was performed according to a manufacturer's manual. The corresponding cells were treated with 0.75% formaldehyde at room temperature for 15 minutes, glycine was added thereto, and the resulting cells were scraped into ice-cold PBS and centrifuged at 1,000×g and 4° C. for 3 minutes to remove a supernatant, pellets were dissolved with 400 μl of FA lysis buffer (50 mM HEPES, 150 mM NaCl, 2 mM EDTA pH 8.0, 1% Triton-X100, 0.1% NaDeoxycholate), and then lysed using a sonicator twice for 10 minutes at a high voltage under the following condition: lysis for 30 seconds and resting for 30 seconds. […]
In addition, the binding of PPARγ2 and a binding strength thereof according to the expression of 14-3-3β and 14-3-3γ were evaluated by ChIP assay using a PPAR response element (PPRE) known as a binding site of PPARγ2 present in the FAT/CD36 promoter. […]

[1] = biological target: T1, PPARγ2 deletion mutant (139-505) (Homo sapiens, UniProt P37231); test: GST-pull down assay with PPARγ2 deletion mutant (139-505); assay type: binding; settings: FIG. 3B/3C
T1 construct: Flag-PPARγ2 (139-505) DNA (4 μg); expressed in transfected cells; host or cells: HEK-293T
T1 sequence (P37231 139-505): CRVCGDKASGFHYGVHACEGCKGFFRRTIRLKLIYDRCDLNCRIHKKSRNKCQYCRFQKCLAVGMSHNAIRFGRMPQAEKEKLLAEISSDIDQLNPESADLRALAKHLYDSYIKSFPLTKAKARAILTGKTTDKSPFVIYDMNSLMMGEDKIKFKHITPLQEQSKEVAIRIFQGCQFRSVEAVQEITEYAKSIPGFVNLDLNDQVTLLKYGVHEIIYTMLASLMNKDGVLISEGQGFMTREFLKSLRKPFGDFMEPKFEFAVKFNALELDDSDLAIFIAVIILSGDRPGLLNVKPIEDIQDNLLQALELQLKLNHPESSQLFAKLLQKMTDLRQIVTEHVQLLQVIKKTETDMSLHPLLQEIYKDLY
Method: HEK-293T cells were seeded in a 100 mm plate at a density of 2×10^6 cells per each well, and then transfected with Flag-PPARγ2 (1-505) DNA (4 μg), Flag-PPARγ2 (1-310) DNA (4 μg), Flag-PPARγ2 (139-505) DNA (4 μg), and mGST-14-3-3β (4 μg) or mGST-14-3-3γ (4 μg) using an E-fection plus reagent (Lugen). For Flag-PPARγ2 (1-310) DNA and Flag-PPARγ2 (139-505) DNA, DNA fragments amplified through polymerase chain reaction (PCR) were cloned into a pCMV-3Tag-1 vector using restriction enzymes XhoI and ApaI. A ratio of DNA to the E-fection plus reagent was 1:2, and this method was performed according to a manufacturer's manual. The corresponding cells were washed with ice-cold PBS and lysed using 500 μl/well of a lysis buffer (150 mM NaCl, 1 mM EDTA, 1% Nonidet P-40, 5% glycerol, 25 mM tris-HCl, pH 7.5, protease inhibitor added), and the lysed cells were centrifuged at 10,000×g and 4° C. for 10 minutes to extract proteins. Thereafter, 1,000 μg of the proteins was reacted with 20 μl of glutathione Sepharose 4B beads (GE Healthcare, Buckinghamshire, UK) for 6 hours, and then washing of the beads with 1 ml of ice-cold PBS was repeated 5 times, and the beads were boiled at 100° C. for 10 minutes, followed by 10% SDS-PAGE gel separation and western blotting. A ratio of GST antibodies (Santa Cruz) to Flag antibodies (Santa Cruz) was 1:3000. […]

SREBP-1c protein = SREBP-1c protein expression by western blotting in HepG2 cells; assay type: cell-based; settings: HepG2, overexpression, 200 μM oleic acid 72 hours, FIG. 7D
Method: In addition, HepG2 cells were seeded in a 6-well plate at a density of 5×10^5 cells per each well, and then transfected with HA-14-3-3β DNA (1 μg) or HA-14-3-3γ DNA (1 μg) using an E-fection plus reagent (Lugen). A ratio of DNA to the E-fection plus reagent was 1:2, and this method was performed according to a manufacturer's manual. After transfection, the cells were treated with 200 μM of oleic acid (OA) for 72 hours, washed with ice-cold PBS, and lysed with 80 μl/well of a lysis buffer (150 mM NaCl, 1 mM EDTA, 1% Nonidet P-40, 5% glycerol, 25 mM tris-HCl, pH 7.5, protease inhibitor added), the lysed cells were centrifuged at 10,000×g and 4° C. for 10 minutes to extract proteins, and 30 μg of the proteins was separated on a 10% SDS-PAGE gel and identified using each of the antibodies (HA, SREBP-1c: Santa Cruz) by western blotting, and all antibodies were used in a ratio of 1:3000.

HepG2 cells = test: Triglyceride colorimetric assay in HepG2 cells; assay type: cell-based, human; settings: HepG2, overexpression, 200 μM oleic acid 72 hours, FIG. 10A
Method: HepG2 cells and primary mouse hepatocytes were separately seeded in a 6-well plate at a density of 4×10^5 cells per each well, and then transfected with GFP-14-3-3β DNA (1 μg) or GFP-14-3-3γ DNA (1 μg) and si-14-3-3β (10 μM, Santa Cruz) or si-14-3-3γ (10 μM, Santa Cruz) using an E-fection plus reagent (Lugen). A ratio of DNA to the E-fection plus reagent was 1:2, and this method was performed according to a manufacturer's manual. After transfection, the cells were treated with 200 μM of oleic acid (OA) for 72 hours, and the amount of triglycerides was measured using a triglyceride colorimetric assay kit (Cayman Chemical). The corresponding cells were washed with ice-cold PBS and then scraped using a standard diluent assay reagent, the scrapping process was repeated using a sonicator 20 times to lyse the cells, and the lysed cells were reacted with an enzyme buffer solution for 15 minutes, followed by measurement using an ELISA reader (Bio-Rad Laboratories, Inc) at a wavelength of 550 nm.

## 14-3-3γ: 14-3-3 isoform protein overexpressed by DNA transfection; decreases the transcriptional activity of PPARγ2; proposed active ingredient
FAT/CD36 promoter
  binding of PPARγ2 to the FAT/CD36 promoter: inhibited
[1]
  binding to PPARγ2 deletion mutant (139-505): bound
SREBP-1c protein
  expression of the SREBP-1c protein: reduced
HepG2 cells
  triglyceride accumulation: reduced

## 14-3-3β: 14-3-3 isoform protein overexpressed by DNA transfection; increases the transcriptional activity of PPARγ2 by binding to PPARγ2
FAT/CD36 promoter
  binding of PPARγ2 to the FAT/CD36 promoter: increased
[1]
  binding to PPARγ2 deletion mutant (139-505): bound
SREBP-1c protein
  expression of the SREBP-1c protein: increased
HepG2 cells
  triglyceride accumulation: further increased
